Measured values: publication PMC8140105 (Scientific Reports, 2021)

System: BV-2 microglia cells
Experiment: ROS assay (fluorometric intracellular ROS kit)
Assay type: cell-based, murine
Conditions: BV-2 cells, 24 h treatment, fluorescence, n = 12
Description: Microglia activation is accompanied by an increased reactive oxygen species (ROS) production. The ROS assay was performed using a fluorometric intracellular ROS kit according to the supplier’s protocol (Sigma-Aldrich, Diegem, Belgium). In brief, 4 × 10^4 cells/well were seeded in a black 96-well plate. Four hours post seeding, 100 µL of master reaction mix was added to the wells and incubated for 1 h after which cells were treated with PapRIV dissolved in PBS for 24 h. Fluorescence intensity was measured using an EnVision fluorometric plate reader at λex = 492/λem = 535 nm (Perkin Elmer, Zaventem, Belgium).

SDLPFEH [PapRIV, heptapeptide (SDLPFEH) quorum sensing peptide originating from the Bacillus cereus group; synthetic, purchased from GL Biochem]
intracellular ROS: increase
